# According to PMC10683025, “Discovery of a Hydroxylamine-Based Brain-Penetrant EGFR Inhibitor for Metastatic Non-Small-Cell Lung Cancer” (Journal of Medicinal Chemistry, 2023):
# Like-named read-outs stand apart in the source and are kept apart here.
# How the values were obtained:
# [1] = target: T1, ABL1(T315I)-phosphorylated (Homo sapiens, UniProt P00519, T315I); test: KINOMEScan; type: binding; conditions: read-out: Percent Control
# T1 construct: purchased Eurofins DiscoverX
# From the text: (§2) Percent control was mapped onto the kinome tree using TREEspot.
# [2] = system: HER2+ breast cancer cell lines; test: CellTiter-Glo cell viability assay; type: cell-based; conditions: Homo sapiens; range over cell lines; read-out: IC50's in HER2+ breast cancer cell lines
# Protocol: The A431, HCC827, SK-BR-3, ZR-75–30, AU565, and Caco-2 cell lines were obtained from ATCC. The NCI-H1975 cell line was obtained from SIBS. The NCI-H3255 cell line was obtained from CoBioer. Engineered Ba/F3 cell lines were obtained from Crown Bioscience. MCKII-MDR1 cells were obtained from The Netherlands Cancer Institute. HEK293 cells were obtained from Invitrogen. A431 cells were cultured in DMEM (Life Technologies) with 10% FBS. HCC827, NCI-H1975, and AU565 cells were cultured in RPMI1640 (Invitrogen) with 10% FBS. NCI-H3255 cells were cultured in BEGM (Lonza) with 10% FBS. Ba/F3 EGFR-del E746_A750/C797S and Ba/F3 EGFR-L858R/C797S cells were cultured in RPMI (Invitrogen) with 10% FBS. SK-BR-3 cells were cultured in McCoy’s 5a (Invitrogen) with 10% FBS. ZR-75-30 cells were cultured in RPMI1640 (Invitrogen) with 20% FBS. Caco-2 and MCKII-MDR1 culture information is given in the Permeability Studies section. HEK293 cells were cultured in DMEM (Gibco) with 10% FBS, 0.1 mM NEAA, 25 mM HEPES, 100 U/mL penicillin-streptomycin, μg/mL blasticidin, and 400 μg/mL Geneticin. All cells were cultured in a humidified incubator with 5% CO2 at 37 °C.
# Viability assays using A431, HCC827, NCI-H1975, NCI-H3255, Ba/F3 EGFR-del E746_A750/C797S, Ba/F3 EGFR-L858R/C797S, AU565, SK-BR-3, and ZR-75-30 cells were performed at Crown BioScience. Cells were plated into 96-well plates at 1500–7000 cells per well and dosed in triplicate (n = 3) in a nine-point, 4-fold dilution series with compounds (0.15 nM to 10 μM) in DMSO and incubated for 72 h. After 72 h, cell viability was assayed by CellTiter-Glo Luminescent Viability Assay (Promega). Dose–response curves were generated and used to calculate the IC50 values which were calculated on GraphPad Prism from the nonlinear regression equation fitted with a sigmoidal dose response and are presented as mean ± SEM.
# YES = target: T2, YES (Homo sapiens, UniProt P07947); test: KINOMEScan; type: binding; conditions: read-out: Percent Control
# T2 construct: purchased Eurofins DiscoverX (KINOMEScan service)
# ERBB4 = target: T3, ERBB4 (Homo sapiens, UniProt Q15303); test: KinaseProfiler enzymatic radiometric assay; type: biochemical; conditions: read-out: Kinase IC50
# T3 construct: purchased Eurofins Cerep (KinaseProfiler, contract assay)
# Protocol: (§1) In vitro kinase activity (inhibitor binding constants (Kd) and biochemical inhibition (IC50’s)) were assessed by Eurofins DiscoverX (Kd determinations) and Eurofins Cerep (biochemical IC50 determinations).
# BCR-ABLwt = BCR-ABLwt (Homo sapiens, UniProt P00519); test: KinaseProfiler enzymatic radiometric assay; type: biochemical; conditions: read-out: Kinase IC50
# Protocol: as §1
# ERBB2 = target: T4, ERBB2 (Homo sapiens, UniProt P04626); test: KinaseProfiler enzymatic radiometric assay; type: biochemical; conditions: read-out: Kinase IC50
# T4 construct: purchased Eurofins DiscoverX (contract assay)
# Protocol: as §1
# DRAK1 = target: T5, DRAK1 (Homo sapiens, UniProt Q9UEE5); test: KinaseProfiler enzymatic radiometric assay; type: biochemical; conditions: read-out: Kinase IC50
# T5 construct: purchased Eurofins DiscoverX (contract assay)
# T5 sequence (Q9UEE5 1-414): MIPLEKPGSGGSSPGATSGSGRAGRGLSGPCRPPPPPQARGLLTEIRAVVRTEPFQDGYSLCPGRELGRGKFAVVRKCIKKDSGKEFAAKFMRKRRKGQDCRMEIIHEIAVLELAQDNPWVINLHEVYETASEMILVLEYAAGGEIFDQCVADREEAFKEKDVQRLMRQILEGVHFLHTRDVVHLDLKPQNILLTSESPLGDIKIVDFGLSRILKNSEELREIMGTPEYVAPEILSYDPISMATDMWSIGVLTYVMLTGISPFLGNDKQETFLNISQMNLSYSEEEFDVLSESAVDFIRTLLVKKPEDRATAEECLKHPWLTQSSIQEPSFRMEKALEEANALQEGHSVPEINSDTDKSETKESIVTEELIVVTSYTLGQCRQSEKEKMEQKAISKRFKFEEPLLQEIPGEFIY
# Protocol: as §1
# LYN = target: T6, LYN (Homo sapiens, UniProt P07948); test: KinaseProfiler enzymatic radiometric assay; type: biochemical; conditions: read-out: Kinase IC50
# T6 construct: purchased Eurofins DiscoverX (contract assay)
# Protocol: as §1
# ACVR1B = target: T7, ACVR1B (Homo sapiens, UniProt P36896); test: KINOMEScan; type: binding; conditions: read-out: Percent Control
# T7 construct: purchased Eurofins DiscoverX
# From the text: as §2
# [3] = Brain tissue binding by equilibrium dialysis; type: in vitro ADME, mouse
# Protocol: Plasma protein binding and brain tissue binding were determined by Pharmaron, Inc. using the equilibrium dialysis method. […] Following incubation, the samples were analyzed by LC-MS/MS and the concentrations of the compounds were determined in the buffer and plasma solution chambers.
# PIKFYVE = target: T8, PIKFYVE (Homo sapiens, UniProt Q9Y2I7); test: KINOMEScan; type: binding; conditions: read-out: Percent Control
# T8 construct: purchased Eurofins DiscoverX (KINOMEScan service)
# CYP1A2 = target: T9, CYP1A2 (Homo sapiens, UniProt P05177); test: CYP450 inhibition in human liver microsomes; type: in vitro ADME
# T9 construct: tissue BD Gentest; host or cells: pooled human liver microsomes
# Protocol: The activities tested were CYP1A2-mediated phenacetin O-demethylation, CYP2C19-mediated (S)-mephenyotin 4′-hydroxylation, CYP2C9-mediated diclofenac 4′-hydroxylation, CYP2D6-mediated dextromethorphan O-demethylation, and CYP3A4-mediated midazolam 1′-hydroxylation. […] The reactions were initiated by adding NADPH (1 mM final concentration) after a 5 min preincubation, and the assay was run in duplicate (n = 2). Samples were analyzed by ultra-performance liquid chromatography tandem mass spectrometry (UPLC-MS/MS).
# [4] = CD-1, mouse, mouse brain homogenate
# T2 sequence (P07947 whole entry): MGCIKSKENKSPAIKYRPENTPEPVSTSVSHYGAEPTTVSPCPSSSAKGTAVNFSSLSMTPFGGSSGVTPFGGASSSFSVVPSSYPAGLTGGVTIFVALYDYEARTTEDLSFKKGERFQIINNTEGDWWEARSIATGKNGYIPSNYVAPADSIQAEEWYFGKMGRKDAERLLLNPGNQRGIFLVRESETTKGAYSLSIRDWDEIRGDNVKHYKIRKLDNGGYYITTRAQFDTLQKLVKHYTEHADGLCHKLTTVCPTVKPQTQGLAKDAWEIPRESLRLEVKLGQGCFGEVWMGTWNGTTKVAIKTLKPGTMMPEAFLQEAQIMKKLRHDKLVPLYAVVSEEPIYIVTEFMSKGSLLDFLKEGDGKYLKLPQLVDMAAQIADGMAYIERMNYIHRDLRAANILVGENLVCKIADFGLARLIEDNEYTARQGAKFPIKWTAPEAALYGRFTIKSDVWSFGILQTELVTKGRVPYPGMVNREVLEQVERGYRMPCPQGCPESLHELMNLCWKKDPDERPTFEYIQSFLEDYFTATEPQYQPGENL
# T9 sequence (P05177 whole entry): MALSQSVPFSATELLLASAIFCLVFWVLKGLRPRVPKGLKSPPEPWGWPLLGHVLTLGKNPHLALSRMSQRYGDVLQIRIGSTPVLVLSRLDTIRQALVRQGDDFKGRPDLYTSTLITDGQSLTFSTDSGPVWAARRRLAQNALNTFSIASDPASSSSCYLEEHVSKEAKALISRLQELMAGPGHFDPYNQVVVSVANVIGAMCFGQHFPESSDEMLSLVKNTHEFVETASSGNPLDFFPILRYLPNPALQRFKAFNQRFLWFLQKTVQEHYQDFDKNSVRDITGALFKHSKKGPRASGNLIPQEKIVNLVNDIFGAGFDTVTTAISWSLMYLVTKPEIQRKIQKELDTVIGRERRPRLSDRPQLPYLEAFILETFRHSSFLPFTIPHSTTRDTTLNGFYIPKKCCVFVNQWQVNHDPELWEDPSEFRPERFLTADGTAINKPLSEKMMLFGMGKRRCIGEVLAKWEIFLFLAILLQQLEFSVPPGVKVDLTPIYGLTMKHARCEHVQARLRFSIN
# T4 sequence (P04626 23-1255): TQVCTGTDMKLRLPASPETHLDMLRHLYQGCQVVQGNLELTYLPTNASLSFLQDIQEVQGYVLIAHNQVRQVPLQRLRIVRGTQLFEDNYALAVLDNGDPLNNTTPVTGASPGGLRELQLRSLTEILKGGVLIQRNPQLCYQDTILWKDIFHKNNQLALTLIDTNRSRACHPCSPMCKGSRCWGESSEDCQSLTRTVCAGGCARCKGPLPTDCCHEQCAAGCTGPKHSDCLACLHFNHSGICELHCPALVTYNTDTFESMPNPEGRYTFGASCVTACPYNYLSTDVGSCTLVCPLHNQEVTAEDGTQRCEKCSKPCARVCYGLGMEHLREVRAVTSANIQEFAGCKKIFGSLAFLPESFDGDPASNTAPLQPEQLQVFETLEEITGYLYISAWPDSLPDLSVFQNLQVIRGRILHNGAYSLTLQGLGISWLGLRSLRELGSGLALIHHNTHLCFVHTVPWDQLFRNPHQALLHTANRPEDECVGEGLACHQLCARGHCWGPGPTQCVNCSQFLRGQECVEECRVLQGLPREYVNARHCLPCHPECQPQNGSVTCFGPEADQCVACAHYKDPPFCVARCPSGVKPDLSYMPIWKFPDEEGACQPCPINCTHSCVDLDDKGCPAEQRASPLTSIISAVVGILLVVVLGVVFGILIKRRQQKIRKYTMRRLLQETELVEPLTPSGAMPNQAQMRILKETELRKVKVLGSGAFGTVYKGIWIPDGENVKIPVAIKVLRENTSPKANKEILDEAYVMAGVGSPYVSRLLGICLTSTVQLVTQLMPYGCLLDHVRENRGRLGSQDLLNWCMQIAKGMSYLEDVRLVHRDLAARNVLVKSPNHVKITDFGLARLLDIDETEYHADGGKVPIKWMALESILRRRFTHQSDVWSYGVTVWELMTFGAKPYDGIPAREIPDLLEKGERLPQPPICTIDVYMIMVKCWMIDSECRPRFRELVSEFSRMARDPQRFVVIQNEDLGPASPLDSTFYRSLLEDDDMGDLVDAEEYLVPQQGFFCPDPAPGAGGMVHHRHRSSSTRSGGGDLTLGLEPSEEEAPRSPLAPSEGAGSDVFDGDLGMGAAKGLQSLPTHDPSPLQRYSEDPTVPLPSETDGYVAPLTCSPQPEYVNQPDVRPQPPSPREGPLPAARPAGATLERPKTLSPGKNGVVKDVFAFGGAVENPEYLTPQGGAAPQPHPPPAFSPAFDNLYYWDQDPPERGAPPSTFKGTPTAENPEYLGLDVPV
# T8 sequence (Q9Y2I7 whole entry): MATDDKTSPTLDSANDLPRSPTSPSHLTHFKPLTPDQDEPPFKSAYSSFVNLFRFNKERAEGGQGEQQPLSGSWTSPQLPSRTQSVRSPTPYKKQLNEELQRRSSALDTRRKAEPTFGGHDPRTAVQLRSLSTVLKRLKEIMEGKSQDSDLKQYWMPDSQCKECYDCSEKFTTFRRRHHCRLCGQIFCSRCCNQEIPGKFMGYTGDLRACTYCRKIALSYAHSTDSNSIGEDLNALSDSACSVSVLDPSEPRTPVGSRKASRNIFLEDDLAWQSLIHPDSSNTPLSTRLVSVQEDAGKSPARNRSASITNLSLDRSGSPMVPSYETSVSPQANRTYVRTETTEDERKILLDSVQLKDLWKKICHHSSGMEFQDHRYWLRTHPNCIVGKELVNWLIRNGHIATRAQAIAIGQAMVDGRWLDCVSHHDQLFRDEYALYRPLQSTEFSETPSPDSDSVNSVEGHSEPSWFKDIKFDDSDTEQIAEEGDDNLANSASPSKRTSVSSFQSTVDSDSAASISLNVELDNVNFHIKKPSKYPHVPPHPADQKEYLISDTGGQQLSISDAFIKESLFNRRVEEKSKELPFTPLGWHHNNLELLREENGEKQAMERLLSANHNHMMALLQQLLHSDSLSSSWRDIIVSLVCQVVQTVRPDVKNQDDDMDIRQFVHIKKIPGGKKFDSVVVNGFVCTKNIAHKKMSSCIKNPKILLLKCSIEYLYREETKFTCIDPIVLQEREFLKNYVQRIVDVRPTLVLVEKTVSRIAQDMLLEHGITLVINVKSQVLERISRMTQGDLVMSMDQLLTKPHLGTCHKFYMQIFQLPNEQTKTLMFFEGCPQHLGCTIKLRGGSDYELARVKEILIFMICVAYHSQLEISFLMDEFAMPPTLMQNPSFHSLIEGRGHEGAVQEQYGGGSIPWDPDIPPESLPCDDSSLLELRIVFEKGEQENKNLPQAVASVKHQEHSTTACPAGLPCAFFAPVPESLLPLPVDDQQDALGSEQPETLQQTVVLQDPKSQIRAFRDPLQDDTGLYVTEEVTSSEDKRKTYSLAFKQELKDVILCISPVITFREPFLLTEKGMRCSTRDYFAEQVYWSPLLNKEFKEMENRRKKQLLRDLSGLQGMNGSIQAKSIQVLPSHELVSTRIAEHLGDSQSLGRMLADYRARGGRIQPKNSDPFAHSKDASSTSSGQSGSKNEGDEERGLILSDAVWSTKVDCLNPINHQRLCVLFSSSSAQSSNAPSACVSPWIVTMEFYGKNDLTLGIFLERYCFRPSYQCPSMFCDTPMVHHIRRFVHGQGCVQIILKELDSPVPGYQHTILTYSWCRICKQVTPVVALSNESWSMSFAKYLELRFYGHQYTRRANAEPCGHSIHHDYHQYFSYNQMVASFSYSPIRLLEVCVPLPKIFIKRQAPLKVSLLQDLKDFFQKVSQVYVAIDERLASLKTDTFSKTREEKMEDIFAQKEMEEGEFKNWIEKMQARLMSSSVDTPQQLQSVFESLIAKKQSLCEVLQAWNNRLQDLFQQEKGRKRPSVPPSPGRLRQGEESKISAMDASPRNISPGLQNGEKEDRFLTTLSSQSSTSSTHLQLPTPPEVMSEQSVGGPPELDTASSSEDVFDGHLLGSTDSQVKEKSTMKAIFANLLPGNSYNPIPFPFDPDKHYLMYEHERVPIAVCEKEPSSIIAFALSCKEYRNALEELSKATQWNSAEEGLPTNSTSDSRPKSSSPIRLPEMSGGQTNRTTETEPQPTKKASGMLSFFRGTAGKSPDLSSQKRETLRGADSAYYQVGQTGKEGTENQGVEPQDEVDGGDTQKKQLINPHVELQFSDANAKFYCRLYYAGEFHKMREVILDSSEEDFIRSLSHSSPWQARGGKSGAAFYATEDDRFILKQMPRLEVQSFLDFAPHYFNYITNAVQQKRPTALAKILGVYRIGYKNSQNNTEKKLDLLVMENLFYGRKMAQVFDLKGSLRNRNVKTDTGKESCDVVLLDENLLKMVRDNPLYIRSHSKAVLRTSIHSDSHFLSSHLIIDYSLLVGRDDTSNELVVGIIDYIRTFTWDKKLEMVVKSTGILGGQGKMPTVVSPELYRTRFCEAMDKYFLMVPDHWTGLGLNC
# T6 sequence (P07948 whole entry): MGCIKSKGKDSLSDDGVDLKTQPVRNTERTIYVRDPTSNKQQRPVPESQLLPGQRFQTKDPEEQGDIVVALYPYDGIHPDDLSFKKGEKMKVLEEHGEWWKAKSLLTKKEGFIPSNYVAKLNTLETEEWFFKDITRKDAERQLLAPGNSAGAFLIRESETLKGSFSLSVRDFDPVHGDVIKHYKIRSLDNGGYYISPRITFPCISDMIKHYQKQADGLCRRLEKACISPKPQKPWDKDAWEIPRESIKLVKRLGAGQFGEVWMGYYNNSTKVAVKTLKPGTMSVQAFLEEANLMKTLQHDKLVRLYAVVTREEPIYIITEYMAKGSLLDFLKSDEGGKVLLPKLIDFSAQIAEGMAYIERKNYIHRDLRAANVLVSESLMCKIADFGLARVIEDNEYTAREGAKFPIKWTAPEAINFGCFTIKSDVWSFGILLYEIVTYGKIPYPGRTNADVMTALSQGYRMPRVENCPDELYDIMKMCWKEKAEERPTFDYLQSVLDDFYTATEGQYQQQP
smiles,measurement,setting,value
"COc1cc2ncnc(Nc3cccc(Cl)c3F)c2cc1OCCON1CCN(C)CC1 [Compound 9, N-(3-Chloro-2-fluorophenyl)-7-methoxy-6-(2-((4-methylpiperazin-1-yl)oxy)ethoxy)quinazolin-4-amine]",remaining binding at 1 µM,[1],30%
same,IC50,[2],990 to 1600 nM
same,remaining binding at 1 µM,YES,59%
same,IC50,ERBB4,330 nM
same,IC50,BCR-ABLwt,976 nM
same,IC50,ERBB2,12 nM
same,IC50,DRAK1,1030 nM
same,IC50,LYN,58 nM
same,remaining binding at 1 µM,ACVR1B,86%
same,"fraction unbound at 6 h, 5 μM","[3]; CD-1, mouse, brain homogenate, read-out: fu,brain% / %Unboundbrain",0.0405
same,"recovery at 6 h, 5 μM",[3]; [4],93%
same,"remaining at 6 h, 5 μM",[3]; [4],92.6%
same,"fraction unbound at 6 h, 5 μM","[3]; CD-1, mouse, mouse brain homogenate, read-out: %Unboundbrain (converted)",0.0405
same,"fraction unbound at 6 h, 5 µM","[3]; mouse, brain homogenate, read-out: fu,brain% / %Unboundbrain",0.041
same,remaining binding at 1 µM,PIKFYVE,1.6%
same,IC50,CYP1A2,> 30000 nM
